Values of other authors as cited in patent US7608286B2, “Phyto-nutraceutical synergistic composition for hyperlipedemic condition” (priority 2006, dated 2009).

Columns and labels:
[1] = system: bacterial resistance mechanism (multidrug pump); conditions: in the presence of 5′-MHC
rats = conditions: rat, in vivo
[2] = target: T1, lanosterol 14alpha -demethylase (Homo sapiens, UniProt Q16850)
T1 sequence (Q16850 1-509): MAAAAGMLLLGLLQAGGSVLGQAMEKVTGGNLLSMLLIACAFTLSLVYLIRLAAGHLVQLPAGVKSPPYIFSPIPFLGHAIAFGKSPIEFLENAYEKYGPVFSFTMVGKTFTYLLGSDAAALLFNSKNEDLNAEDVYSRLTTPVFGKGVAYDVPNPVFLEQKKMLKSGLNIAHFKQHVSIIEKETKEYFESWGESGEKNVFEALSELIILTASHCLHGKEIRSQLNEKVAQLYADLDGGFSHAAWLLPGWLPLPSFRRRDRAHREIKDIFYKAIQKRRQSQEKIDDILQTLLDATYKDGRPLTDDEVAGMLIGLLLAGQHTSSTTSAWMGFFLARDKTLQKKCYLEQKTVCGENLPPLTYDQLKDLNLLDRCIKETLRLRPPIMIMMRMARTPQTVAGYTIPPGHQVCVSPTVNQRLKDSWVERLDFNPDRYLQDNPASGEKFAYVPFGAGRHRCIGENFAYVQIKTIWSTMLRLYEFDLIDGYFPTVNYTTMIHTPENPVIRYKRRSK

[3] = system: normolipidemic and hyperlipidemic patients with low HDL-C levels; conditions: low dose (1.5 g/d)
[4] = system: participants having low blood concentrations of HDL-C; conditions: time-release
[5] = system: apolipoprotein E-null mice; conditions: evolving versus established
[6] = system: cultured human liver (HepG2) cells

Compound: COc1cc([C@H]2Oc3cc(-c4cc(=O)c5c(O)cc(O)cc5o4)cc(OC)c3O[C@@H]2CO)ccc1O (racemic) [5′-MHC, 5′-methoxyhydnocarpin]
- accumulation of berberine in the cells [1]: strong increase

Compound: Nc1ncnc2c1ncn2C[C@@H](O)[C@@H](O)C(=O)O [Eritadenine]
- S-adenosylmethionine (SAM):S-adenosylhomocysteine (SAH) ratio in the liver (rats): significantly decreased
- phosphatidylcholine (PC):phosphatidylethanolamine ratio in liver microsomes (rats): significantly decreased
- plasma cholesterol concentration (rats): significantly decreased

Compound: C/C(C=O)=C\CC[C@@H](C)[C@H]1CC[C@@]2(C)C3=CC[C@H]4C(C)(C)C(=O)CC[C@]4(C)C3=CC[C@]12C [ganoderal A]
- cholesterol biosynthesis / lanosterol 14alpha -demethylase [2]: inhibit cholesterol biosynthesis

Compound: C/C(=C\CC[C@@H](C)[C@H]1CC[C@@]2(C)C3=CC[C@H]4C(C)(C)C(=O)CC[C@]4(C)C3=CC[C@]12C)CO [ganoderol A]
- cholesterol biosynthesis / lanosterol 14alpha -demethylase [2]: inhibit cholesterol biosynthesis

Compound: C/C(=C\CC[C@@H](C)[C@H]1CC[C@@]2(C)C3=CC[C@H]4C(C)(C)[C@@H](O)CC[C@]4(C)C3=CC[C@]12C)CO [ganoderol B]
- cholesterol biosynthesis / lanosterol 14alpha -demethylase [2]: inhibit cholesterol biosynthesis

Compound: O=C(O)c1cccnc1 [nicotinic acid, Nicotinic acid]
- average increase in HDL-C levels [3]: 20%
- triglyceride levels [3]: significantly lowers
- change of total cholesterol concentrations [4]: -20 mg/dL
- decrease of low-density lipoprotein cholesterol levels [4]: 13%
- decrease of the ratio of total cholesterol to HDL-C [4]: 25%
- decrease of total cholesterol concentrations [4]: 9%
- decrease of triglyceride levels [4]: 20%
- mean change of HDL-C levels [4]: +6 mg/dl
- mean increase of HDL-C levels [4]: 18%

Compound: (−)-epigallocatechin gallate [EGCG]
- atherosclerotic lesions [5]: differentially reduces evolving atherosclerotic lesions without influencing established atherosclerosis
- cellular cholesterol concentration lowered [6]: 28%
- cellular cholesterol synthesis [6]: significantly lowered
- increase of LDL receptor binding activity [6]: 3 fold

Compound: ganoderic acid
- cholesterol biosynthesis / lanosterol 14alpha -demethylase [2]: inhibit cholesterol biosynthesis
